According to patent US20110173718A1, “HERBICIDE TOLERANT PLANTS” (SYNGENTA CROP PROTECTION, INC., priority 2008, published 2011):
“And” between values parts separate entries of the source, which are not always exact repeats. Equal values may be shown once.

Assays:
Assay type in all cases: in vivo
[1] = test system: weeds; assay: Glasshouse weed control, HST inhibitors alone and with A22, post-emergence; details: 14 DAT, single replicate
Protocol: (§1) In a further test, the results of which are depicted in tables 18 and 19, weed seeds are planted out in trays containing 50% peat/50% John Innes no. 3 soil and grown in the glass house at 24-27 C day; 18-21 C night and approximately a 15 h photoperiod. Humidity is ˜65% and light levels at bench level are up to 2 mmol/m^2. Again all spray chemicals are dissolved in 0.2% X77 surfactant and sprayed from a boom on a track sprayer moving at 2 mph with the nozzle set about 2 inches above the plant tops. The spray volume is […]. Sprays are carried out both pre-emergence and post-emergence over small plants at about 7-12 d post-emergence. Plants are assessed at 14 DAT with herbicidal damage scored on a scale from 0 to 100%. The HPPD inhibiting herbicide is compound A22 (4-hydroxy-3-[[2-(2-methoxyethoxy)methyl]-6-(trifluoromethyl)-3-pyridinylicarbonyl]-bicyclo[3.2.1]oct-3-en-2-one) which is sprayed at 2 g/ha both alone and in mixture with various HST herbicides. Results and spray rates are depicted in Tables 18 and 19. Again the Colby formula has been used to calculate synergy scores observed following treatment with the mixture based on the results obtained with the single components alone. Positive synergy is observed between the HPPD herbicide and a wide variety of HST inhibitor herbicides applied both pre and postemergence across a variety of weeds.

[2] = test system: weeds; assay: Glasshouse weed control, HST inhibitors alone and with A22, pre-emergence; details: 14 DAT
Protocol: as §1

[3] = test system: wild-type (WT) Samsun tobacco; assay: Glasshouse spray test, wild-type tobacco; details: Norflurazon, 150 g/ha; 14 DAT; WT control, reps
Protocol: Rooted transgenic T0 plantlets are transferred from agar and potted into 50% peat, 50% John Innes soil no 3 or, for example, MetroMix® 380 soil (Sun Gro Horticulture, Bellevue, Wash.) with slow-release fertilizer in 3 inch round or 4 inch square pots and left regularly watered to establish for 8-12 d in the glass house. Glass house conditions are about 24-27° C. day; 18-21° C. night and approximately a 14 h (or longer in UK summer) photoperiod. Humidity is ˜65% and light levels up to 2000 μmol/m^2 at bench level. Once new tissue emerges and plants they have reached the 2-4 leaf stage some of the clones from each event are sprayed with test chemicals dissolved in water with 0.2-0.25% X-77 surfactant and sprayed from a boom on a suitable track sprayer moving at 2 mph in a DeVries spray chamber with the nozzle about 2 inches from the plant tops. Spray volume is suitably 25 gallons per acre or, for example, […].
Test chemicals are, for example, compound 2.3 at 500 g/ha. At the same time that transgenic plants are sprayed so too are w/t Samsun tobacco plants grown from seed as well as non-transgenic plants regenerated from tissue culture and non-transgenic tissue culture escapes. Damage is assessed versus unsprayed control plants of like size and development.
6 Seed from w/t Samsun tobacco and 8 T1 seed from events B8 and G9 are also planted out in 3 inch pots, grown on for 7 to 12 d and then, as described in the foregoing examples, the plantlets spray tested for resistance to various chemicals and assessed at 14 DAT. Chemicals are formulated in 0.2% X77 and sprayed at a spray volume of 200 l/ha.
Seed of wild-type tobacco plants, C2 tobacco plants and of the T1 progeny of a further Arabidopsis-HST expressing tobacco line, D2 were planted out in 3 inch pots, grown on, sprayed with compounds 1.1, 2.30 and 3.6 at the rates shown in table 5. Percent damage scores were assessed at 7 DAT. Aside from the presumptive non-transgenic segregants the D2 line containing the Arabidopis HST expression construct offered the highest level of tolerance to the two HST herbicides with the Psuedomonas HPPD, C2 line, offering only marginal tolerance under the conditions of this test.
Single copy events amongst the T1 plant lines are identified by their 3:1 segregation ratio (wrt kanamycin and or herbicide) and by quantitative RT-PCR. Seed from the thus selected T1 tobacco (var Samsun) lines are sown in 3 inch diameter pots containing 50% peat, 50% John Innes soil no 3. After growth to the 3 leaf stage, plants are sprayed, as described above, in order to test for herbicide tolerance relative to like-treated non-transgenic tobacco plants.
Control tobacco plants and transgenic T1 plants expressing either the Pseudomonas or the wheat HPPD gene are sprayed at 37, 111, 333 and 1000 g/ha rates of HST inhibitors and, for example, compound 2.3.
Plants are assessed and scored for % damage at 16 DAT.

Structure (SMILES): COCCOCc1nc(C(F)(F)F)ccc1C(=O)C1=C(O)C2CCC(C2)C1=O (stereo not shown) [Compound A22, 4-hydroxy-3-[[2-(2-methoxyethoxy)methyl]-6-(trifluoromethyl)-3-pyridinylicarbonyl]-bicyclo[3.2.1]oct-3-en-2-one, reference compound]
- % control score, Obs ([1]; BRAPL, A22 alone 2 g/ha): 2%
- % control score, Obs ([1]; DIGSA, A22 alone 2 g/ha): 5%
- % control score, Obs ([1]; ECHCG, A22 alone 2 g/ha): 30%
- % control score, Obs ([1]; PANMI, A22 alone 2 g/ha): 50% and 55%
- % control score, Obs ([1]; SETFA, A22 alone 2 g/ha): 10% and 2%
- % control score, Obs ([1]; SIDSP, A22 alone 2 g/ha): 20% and 15%
- BRAPL Obs, % control score ([2]; rate 2 g/ha): 0%
- DIGSA Obs, % control score ([2]; rate 2 g/ha): 2% and 0%
- ECHCG Obs, % control score ([2]; rate 2 g/ha): 5% and 0%
- PANMI Obs, % control score ([2]; rate 2 g/ha): 0%
- SETFA Obs, % control score ([2]; rate 2 g/ha): 5% and 0%
- SIDSP Obs, % control score ([2]; rate 2 g/ha): 2% and 0%

Structure (SMILES): CC(C)(C)C(=O)Oc1c(-c2c(F)ccc(Cl)c2Cl)c(=O)n(CC(F)F)c2nccnc12 [Compound 2.25]
- % control score, Obs ([1]; BRAPL, 15.625 g/ha alone): 15%
- % control score, Obs ([1]; BRAPL, 62.5 g/ha alone): 30%
- % control score, Obs ([1]; BRAPL, 250 g/ha alone): 60%
- % control score, Obs ([1]; DIGSA, 15.625 g/ha alone): 0%
- % control score, Obs ([1]; DIGSA, 62.5 g/ha alone): 2%
- % control score, Obs ([1]; DIGSA, 250 g/ha alone): 10%
- % control score, Obs ([1]; ECHCG, 15.625 g/ha alone): 1%
- % control score, Obs ([1]; ECHCG, 62.5 g/ha alone): 2%
- % control score, Obs ([1]; ECHCG, 250 g/ha alone): 30%
- % control score, Obs ([1]; PANMI, 15.625 g/ha alone): 2%
- % control score, Obs ([1]; PANMI, 62.5 g/ha alone): 10%
- % control score, Obs ([1]; PANMI, 250 g/ha alone): 55%
- % control score, Obs ([1]; SETFA, 15.625 g/ha alone): 1%
- % control score, Obs ([1]; SETFA, 62.5 g/ha alone): 5%
- % control score, Obs ([1]; SETFA, 250 g/ha alone): 40%
- % control score, Obs ([1]; SIDSP, 15.625 g/ha alone): 10%
- % control score, Obs ([1]; SIDSP, 62.5 g/ha alone): 30%
- % control score, Obs ([1]; SIDSP, 250 g/ha alone): 40%
- BRAPL Obs, % control score ([2]; HST inhibitor rate 15.625 g/ha): 0%
- BRAPL Obs, % control score ([2]; HST inhibitor rate 62.5 g/ha): 2%
- BRAPL Obs, % control score ([2]; HST inhibitor rate 250 g/ha): 20%
- DIGSA Obs, % control score ([2]; HST inhibitor rate 15.625 g/ha): 0%
- DIGSA Obs, % control score ([2]; HST inhibitor rate 62.5 g/ha): 0%
- DIGSA Obs, % control score ([2]; HST inhibitor rate 250 g/ha): 5%
- ECHCG Obs, % control score ([2]; HST inhibitor rate 15.625 g/ha): 0%
- ECHCG Obs, % control score ([2]; HST inhibitor rate 62.5 g/ha): 0%
- ECHCG Obs, % control score ([2]; HST inhibitor rate 250 g/ha): 30%
- PANMI Obs, % control score ([2]; HST inhibitor rate 15.625 g/ha): 0%
- PANMI Obs, % control score ([2]; HST inhibitor rate 62.5 g/ha): 0%
- PANMI Obs, % control score ([2]; HST inhibitor rate 250 g/ha): 10%
- SETFA Obs, % control score ([2]; HST inhibitor rate 15.625 g/ha): 0%
- SETFA Obs, % control score ([2]; HST inhibitor rate 62.5 g/ha): 1%
- SETFA Obs, % control score ([2]; HST inhibitor rate 250 g/ha): 15%
- SIDSP Obs, % control score ([2]; HST inhibitor rate 15.625 g/ha): 0%
- SIDSP Obs, % control score ([2]; HST inhibitor rate 62.5 g/ha): 1%
- SIDSP Obs, % control score ([2]; HST inhibitor rate 250 g/ha): 2%

Structure (SMILES): CC(C)C(=O)Oc1c(-c2c(Cl)cccc2C(F)(F)F)c(=O)n(CC(F)F)c2nccnc12 [Compound 2.28]
- % control score, Obs ([1]; BRAPL, 15.625 g/ha alone): 5%
- % control score, Obs ([1]; BRAPL, 62.5 g/ha alone): 50%
- % control score, Obs ([1]; BRAPL, 250 g/ha alone): 75%
- % control score, Obs ([1]; DIGSA, 15.625 g/ha alone): 10%
- % control score, Obs ([1]; DIGSA, 62.5 g/ha alone): 50%
- % control score, Obs ([1]; DIGSA, 250 g/ha alone): 70%
- % control score, Obs ([1]; ECHCG, 15.625 g/ha alone): 2%
- % control score, Obs ([1]; ECHCG, 62.5 g/ha alone): 40%
- % control score, Obs ([1]; ECHCG, 250 g/ha alone): 70%
- % control score, Obs ([1]; PANMI, 15.625 g/ha alone): 1%
- % control score, Obs ([1]; PANMI, 62.5 g/ha alone): 35%
- % control score, Obs ([1]; PANMI, 250 g/ha alone): 70%
- % control score, Obs ([1]; SETFA, 15.625 g/ha alone): 2%
- % control score, Obs ([1]; SETFA, 62.5 g/ha alone): 50%
- % control score, Obs ([1]; SETFA, 250 g/ha alone): 80%
- % control score, Obs ([1]; SIDSP, 15.625 g/ha alone): 15%
- % control score, Obs ([1]; SIDSP, 62.5 g/ha alone): 40%
- % control score, Obs ([1]; SIDSP, 250 g/ha alone): 50%
- BRAPL Obs, % control score ([2]; HST inhibitor rate 15.625 g/ha): 0%
- BRAPL Obs, % control score ([2]; HST inhibitor rate 62.5 g/ha): 2%
- BRAPL Obs, % control score ([2]; HST inhibitor rate 250 g/ha): 50%
- DIGSA Obs, % control score ([2]; HST inhibitor rate 15.625 g/ha): 0%
- DIGSA Obs, % control score ([2]; HST inhibitor rate 62.5 g/ha): 0%
- DIGSA Obs, % control score ([2]; HST inhibitor rate 250 g/ha): 30%
- ECHCG Obs, % control score ([2]; HST inhibitor rate 15.625 g/ha): 0%
- ECHCG Obs, % control score ([2]; HST inhibitor rate 62.5 g/ha): 50%
- ECHCG Obs, % control score ([2]; HST inhibitor rate 250 g/ha): 80%
- PANMI Obs, % control score ([2]; HST inhibitor rate 15.625 g/ha): 0%
- PANMI Obs, % control score ([2]; HST inhibitor rate 62.5 g/ha): 0%
- PANMI Obs, % control score ([2]; HST inhibitor rate 250 g/ha): 60%
- SETFA Obs, % control score ([2]; HST inhibitor rate 15.625 g/ha): 0%
- SETFA Obs, % control score ([2]; HST inhibitor rate 62.5 g/ha): 25%
- SETFA Obs, % control score ([2]; HST inhibitor rate 250 g/ha): 60%
- SIDSP Obs, % control score ([2]; HST inhibitor rate 15.625 g/ha): 0%
- SIDSP Obs, % control score ([2]; HST inhibitor rate 62.5 g/ha): 0%
- SIDSP Obs, % control score ([2]; HST inhibitor rate 250 g/ha): 10%

Structure (SMILES): CNc1cnn(-c2cccc(C(F)(F)F)c2)c(=O)c1Cl [Norflurazon, reference compound]
- herbicide % damage [3]: 20% and 15% and 10%
